{"source": "patent US6191117A", "about": "“Methods of producing weight loss and treatment of obesity” (priority 2000, dated 2001)", "origin": "cited, not measured here", "key": {"[1]": {"system": "kainate/AMPA receptor"}, "[2]": {"system": "NMDA receptor"}, "[3]": {"system": "sodium channel"}, "[4]": {"system": "epileptic patients", "details": "human, in vivo"}, "[5]": {"system": "epileptic patients"}, "[6]": {"system": "patients treated for epilepsy"}, "[7]": {"system": "GABA receptor"}, "[8]": {"system": "L-type calcium channels"}}}
{"compound": "NC(=O)OCC(COC(N)=O)c1ccccc1", "note": "[FBM]", "values": [{"measurement": "activity at the kainate/AMPA receptor", "setting": "[1]", "result": "interaction at the kainate/AMPA receptor"}, {"measurement": "activity at the NMDA receptor", "setting": "[2]", "result": "glycine site NMDA antagonist"}, {"measurement": "action on sodium channel", "setting": "[3]", "result": "modulation of the Na++ channel conductance"}, {"measurement": "cognition and fine motor function", "setting": "[4]", "result": "increase both cognition and fine motor function"}, {"measurement": "aplastic anemia and hepatic failure, 1994 reports", "setting": "[5]; 1994 reports", "result": "causing aplastic anemia and hepatic failure"}, {"measurement": "thrombocytopenia and neutropenia", "setting": "[5]; add-on therapy, Lennox-Gestalt Syndrome, prior to FDA approval", "result": "Several mild cases of thrombocytopenia and neutropenia"}, {"measurement": "aplastic anemia or hepatic dysfunction after FDA warning", "setting": "[5]; adjunctive FBM, refractory epilepsy, serum levels monitored", "result": "No cases of aplastic anemia or hepatic dysfunction"}, {"measurement": "safety of long usage", "setting": "[5]; adjunctive therapy, at least one year", "result": "relatively safe after usage for at least one year"}, {"measurement": "aplastic anemia or hepatic dysfunction prior to approval", "setting": "[5]; prior to drug approval", "result": "no reported cases of aplastic anemia or hepatic dysfunction"}, {"measurement": "aplastic anemia attributable to FBM monotherapy", "setting": "[5]; recent analysis", "result": "only several cases of aplastic anemia"}, {"measurement": "drug interactions", "setting": "[5]; with other antiepileptic drugs", "result": "elevation of dilantin, depakote, phenobarbitol levels and the toxic epoxide metabolite of tegretol"}, {"measurement": "weight loss", "setting": "[6]; FBM monotherapy, non-obese patients", "result": 5, "unit": "%"}, {"measurement": "course of weight loss", "setting": "[6]; add-on therapy, partial epilepsy, non-obese patients", "result": "transient and returned to baseline after twenty weeks"}, {"measurement": "anorexia and weight loss", "setting": "[6]; patients treated for epilepsy", "result": "induce anorexia and weight loss"}, {"measurement": "action on GABA", "setting": "[7]", "result": "facilitation of the GABA receptor"}, {"measurement": "interaction at L-type calcium channels", "setting": "[8]", "result": "an interaction at the L-type calcium channels"}]}
